Measured values taken from ChEMBL document CHEMBL1123556, “Synthesis of antimicrobial agents. 1. Syntheses and antibacterial activities of 7-(azole substituted)quinolones” (J Med Chem, 1987).
Converted amounts (≈) assume the structure as drawn.

Experiments:
[1] = test system: Staphylococcus epidermidis; assay: microbe, parasite or virus in culture; format: functional
Description: In vitro antibacterial activity against Staphylococcus epidermidis IAM 1576

[2] = test system: Bacillus subtilis; assay: In vitro antibacterial activity against Bacillus subtilis ATCC 6633; format: functional
[3] = test system: Salmonella paratyphi; assay: microbe, parasite or virus in culture; format: functional, Salmonella enterica subsp. enterica serovar Paratyphi A; conditions: Salmonella enterica
Description: In vitro antibacterial activity against Salmonella paratyphi 1015

[4] = test system: Escherichia coli; assay: In vitro antibacterial activity against Escherichia coli NIHJ JC-2; format: functional
[5] = test system: Pseudomonas aeruginosa; assay: In vitro antibacterial activity against Pseudomonas aeruginosa IFO 3445; format: functional
[6] = test system: Proteus vulgaris; assay: In vitro antibacterial activity against Proteus vulgaris HX-19; format: functional
[7] = test system: Staphylococcus aureus; assay: In vitro antibacterial activity against Staphylococcus aureus FDA 209P JC-1; format: functional
[8] = test system: Klebsiella pneumoniae; assay: microbe, parasite or virus in culture; format: functional
Description: In vitro antibacterial activity against Klebsiella pneumoniae PCI-602

[9] = In vivo acute toxicity against Escherichia coli (KC-14) was determined for the compound administered orally; format: organism-based; conditions: mouse, po
[10] = Total serum concentrations at 0 to 4 hours interval was determined by 50 mg / kg oral administration; format: ADME, cell-free
[11] = In vivo acute toxicity against Escherichia coli (KC-14) was determined for the compound administered intravenously; format: organism-based; conditions: mouse, iv
[12] = Concentrations in serum after 120 minutes at 50 mg / kg oral administration; format: ADME, cell-free
[13] = test system: Mus musculus; assay: In vivo antibacterial activity against Escherichia coli (KC-14) was determined for the compound administered perorally; Value ranges from 3.3-5.0; format: functional; conditions: po
[14] = Concentrations in serum after 60 minutes at 50 mg / kg oral administration; format: ADME, cell-free
[15] = Concentrations in serum after 240 minutes at 50 mg / kg oral administration; format: ADME
[16] = Concentrations in serum after 30 minutes at 50 mg / kg oral administration; format: ADME, cell-free
[17] = test system: Mus musculus; assay: In vivo antibacterial activity against Escherichia coli (KC-14) was determined for the compound administered perorally; Value ranges from 2.4-4.7; format: functional; conditions: po
[18] = test system: Mus musculus; assay: In vivo antibacterial activity against Escherichia coli (KC-14) was determined for the compound administered perorally; format: functional; conditions: po

| Compound | MIC [1] [µg/mL] | MIC [2] [µg/mL] | MIC [3] [µg/mL] | MIC [4] [µg/mL] | MIC [5] [µg/mL] | MIC [6] [µg/mL] | MIC [7] [µg/mL] | MIC [8] [µg/mL] | LD50 [9] [mg/kg] | Concentration in serum [10] [ng/mL] | LD50 [11] [mg/kg] | concentration at 2 h [12] [ng/mL] | ED50 [13] [mg/kg] | concentration at 1 h [14] [ng/mL] | concentration at 4 h [15] [ng/mL] | concentration at 0.5 h [16] [ng/mL] | ED50 [17] [mg/kg] | ED50 [18] [mg/kg] |
| --- | --- | --- | --- | --- | --- | --- | --- | --- | --- | --- | --- | --- | --- | --- | --- | --- | --- | --- |
| CCn1cc(C(=O)O)c(=O)c2cc(F)c(-n3cnc(C(=O)OC)c3)c(F)c21 | 25 (≈ 66.3 µM) | 12.5 (≈ 33.1 µM) | 3.13 (≈ 8.3 µM) | 25 (≈ 66.3 µM) | 25 (≈ 66.3 µM) | 1.56 (≈ 4.13 µM) | 25 (≈ 66.3 µM) | 3.13 (≈ 8.3 µM) |  |  |  |  |  |  |  |  |  |  |
| CCn1cc(C(=O)O)c(=O)c2cc(F)c(-n3cnc(CN(C)C)c3)c(F)c21 | 25 (≈ 66.4 µM) | 6.25 (≈ 16.6 µM) | 6.25 (≈ 16.6 µM) | 25 (≈ 66.4 µM) | 25 (≈ 66.4 µM) | 6.25 (≈ 16.6 µM) | 6.25 (≈ 16.6 µM) | 3.13 (≈ 8.32 µM) |  |  |  |  |  |  |  |  |  |  |
| CCn1cc(C(=O)O)c(=O)c2cc(F)c(-n3cnnc3)cc21 | 25 (≈ 82.7 µM) | 25 (≈ 82.7 µM) | 3.13 (≈ 10.4 µM) | 25 (≈ 82.7 µM) | 25 (≈ 82.7 µM) | 25 (≈ 82.7 µM) | 25 (≈ 82.7 µM) | 12.5 (≈ 41.4 µM) |  |  |  |  |  |  |  |  |  |  |
| CCn1cc(C(=O)O)c(=O)c2cc(F)c(-n3cnc(CO)c3)c(F)c21 | 25 (≈ 71.6 µM) | 6.25 (≈ 17.9 µM) | 0.39 (≈ 1.12 µM) | 6.25 (≈ 17.9 µM) | 25 (≈ 71.6 µM) | 0.78 (≈ 2.23 µM) | 25 (≈ 71.6 µM) | 0.78 (≈ 2.23 µM) |  |  |  |  |  |  |  |  |  |  |
| CCn1cc(C(=O)O)c(=O)c2cc(F)c(-n3cnc(C(=O)N(C)C)c3)c(F)c21 | 25 (≈ 64 µM) | 6.25 (≈ 16 µM) | 3.13 (≈ 8.02 µM) | 25 (≈ 64 µM) | 25 (≈ 64 µM) | 3.13 (≈ 8.02 µM) | 12.5 (≈ 32 µM) | 1.56 (≈ 4 µM) |  |  |  |  |  |  |  |  |  |  |
| CCn1cc(C(=O)O)c(=O)c2cc(F)c(-n3ccnc3)c(F)c21 |  |  |  |  |  |  |  |  | 4000 | 64900 | 773 | 7600 | 4 | 39300 | 1700 | 44800 |  |  |
| CCn1cc(C(=O)O)c(=O)c2cc(F)c(-n3ccnc3)c(SC)c21 | 12.5 (≈ 36 µM) | 0.39 (≈ 1.12 µM) | 0.39 (≈ 1.12 µM) | 6.25 (≈ 18 µM) | 25 (≈ 72 µM) | 0.39 (≈ 1.12 µM) | 3.13 (≈ 9.01 µM) | 0.39 (≈ 1.12 µM) |  |  |  |  |  |  |  |  |  |  |
| CCn1cc(C(=O)O)c(=O)c2cc(F)c(-n3cnc(C)c3)c(F)c21 |  |  |  |  |  |  |  |  | 4000 | 67900 | 593 | 10000 |  | 29400 | 6300 | 49200 | 3.3 |  |
| CCn1cc(C(=O)O)c(=O)c2cc(F)c(-n3ccnc3)cc21 | 25 (≈ 83 µM) | 0.78 (≈ 2.59 µM) | 0.1 (≈ 0.332 µM) | 1.56 (≈ 5.18 µM) | 12.5 (≈ 41.5 µM) | 0.2 (≈ 0.664 µM) | 6.25 (≈ 20.7 µM) | 0.2 (≈ 0.664 µM) |  | 5500 |  | 1100 |  | 2300 |  | 4200 |  | 50 |
| CCn1cc(C(=O)O)c(=O)c2cc(F)c(-n3cnc([N+](=O)[O-])c3)c(F)c21 | 6.25 (≈ 17.2 µM) | 0.39 (≈ 1.07 µM) | 1.56 (≈ 4.28 µM) | 6.25 (≈ 17.2 µM) | 25 (≈ 68.6 µM) | 3.13 (≈ 8.59 µM) | 1.56 (≈ 4.28 µM) | 0.39 (≈ 1.07 µM) |  |  |  |  |  |  |  |  |  |  |
| CCn1cc(C(=O)O)c(=O)c2cc(F)c(-n3cnc(/C=N/O)c3)c(F)c21 | 25 (≈ 69 µM) | 0.78 (≈ 2.15 µM) | 0.39 (≈ 1.08 µM) | 6.25 (≈ 17.3 µM) | 25 (≈ 69 µM) | 0.78 (≈ 2.15 µM) | 3.13 (≈ 8.64 µM) | 0.39 (≈ 1.08 µM) |  |  |  |  |  |  |  |  |  |  |
